Measurements from publication PMC3794980, “Identification of Conserved and HLA Promiscuous DENV3 T-Cell Epitopes” (PLoS Neglected Tropical Diseases, 2013).

Experiments:
DRB5*0101 = DRB5*0101 (Homo sapiens, UniProt P01903+Q30154); experiment: biochemical; format: binding
DRB3*0101 = DRB3*0101 (Homo sapiens, UniProt P01903+P79483); experiment: biochemical; format: binding

SMILES | IC50 (DRB5*0101) | IC50 (DRB3*0101)
CC(C)C[C@H](NC(=O)[C@H](CC(=O)O)NC(=O)[C@H](Cc1ccccc1)NC(=O)[C@@H](N)Cc1ccccc1)C(=O)N1CCC[C@H]1C(=O)N[C@@H](CC(C)C)C(=O)N1CCC[C@H]1C(=O)N[C@@H](Cc1c[nH]c2ccccc12)C(=O)N[C@H](C(=O)N[C@@H](CO)C(=O)NCC(=O)N[C@@H](C)C(=O)N[C@H](C(=O)N[C@H](C(=O)N[C@@H](CCC(=O)O)C(=O)O)[C@@H](C)O)[C@@H](C)O)[C@@H](C)O [Envelope 211-225] | 16.2 µM | 
CC[C@H](C)[C@H](NC(=O)CNC(=O)[C@@H](NC(=O)[C@H](C)NC(=O)[C@@H](NC(=O)[C@H](CS)NC(=O)[C@@H](N)CO)[C@@H](C)CC)[C@@H](C)CC)C(=O)N[C@H](C(=O)N[C@H](C(=O)N[C@@H](CC(C)C)C(=O)N[C@@H](Cc1ccc(O)cc1)C(=O)N[C@@H](CC(C)C)C(=O)NCC(=O)N[C@@H](C)C(=O)N[C@H](C(=O)N[C@H](C(=O)N[C@@H](CCC(N)=O)C(=O)N[C@@H](C)C(=O)O)C(C)C)C(C)C)[C@@H](C)O)[C@@H](C)CC [Envelope 476-493] |  | 3.83 µM
CC[C@H](C)[C@H](NC(=O)CNC(=O)[C@H](CO)NC(=O)CNC(=O)[C@H](CS)NC(=O)[C@H](CCCCN)NC(=O)[C@H](CC(C)C)NC(=O)[C@H](CCC(=O)O)NC(=O)[C@H](CCCCN)NC(=O)CNC(=O)[C@H](CCCCN)NC(=O)[C@H](Cc1c[nH]c2ccccc12)NC(=O)[C@H](CC(N)=O)NC(=O)[C@@H](NC(=O)[C@@H](N)C(C)C)[C@@H](C)CC)C(=O)O [NS1 5-19] | 15.8 µM | 6.3 µM
CC[C@H](C)[C@H](NC(=O)[C@@H](NC(=O)[C@H](Cc1ccccc1)NC(=O)[C@H](CO)NC(=O)[C@H](CO)NC(=O)[C@H](CC(N)=O)NC(=O)[C@H](CCC(N)=O)NC(=O)[C@@H](NC(=O)[C@H](CCC(=O)O)NC(=O)[C@H](C)NC(=O)[C@@H](NC(=O)[C@@H](NC(=O)[C@@H](NC(=O)[C@H](CCCCN)NC(=O)[C@H](C)N)[C@@H](C)CC)C(C)C)[C@@H](C)O)[C@@H](C)O)[C@@H](C)CC)C(=O)O [NS1 121-135] | 9.46 µM | 1.24 µM
CC[C@H](C)[C@H](NC(=O)[C@@H](NC(=O)[C@@H](N)Cc1ccccc1)[C@@H](C)CC)C(=O)N[C@@H](CC(=O)O)C(=O)NCC(=O)N1CCC[C@H]1C(=O)N[C@@H](CC(N)=O)C(=O)N[C@H](C(=O)N1CCC[C@H]1C(=O)N[C@@H](CCC(=O)O)C(=O)N[C@@H](CS)C(=O)N1CCC[C@H]1C(=O)N[C@@H](CO)C(=O)N[C@@H](C)C(=O)N[C@@H](CO)C(=O)O)[C@@H](C)O [NS1 133-147] | 6.91 µM | 
CC[C@H](C)[C@H](NC(=O)[C@@H](NC(=O)[C@H](CC(C)C)NC(=O)[C@H](CC(N)=O)NC(=O)[C@H](CCCNC(=N)N)NC(=O)[C@H](CCCCN)NC(=O)[C@H](CCCCN)NC(=O)[C@H](Cc1ccccc1)NC(=O)[C@H](CCSC)NC(=O)[C@H](CCC(=O)O)NC(=O)[C@H](CCC(=O)O)NC(=O)[C@H](CCC(=O)O)NC(=O)[C@H](CC(C)C)NC(=O)[C@H](CCC(=O)O)NC(=O)[C@@H]1CCCN1)[C@@H](C)O)C(=O)O [NS3 177-191] |  | 10.7 µM
CC[C@H](C)[C@H](NC(=O)[C@H](CO)NC(=O)[C@@H]1CCCN1C(=O)[C@@H](NC(=O)[C@H](Cc1ccccc1)NC(=O)[C@H](Cc1c[nH]c2ccccc12)NC(=O)[C@@H](NC(=O)[C@@H](NC(=O)[C@H](CCCCN)NC(=O)CN)[C@@H](C)O)C(C)C)C(C)C)C(=O)N[C@@H](CCCCN)C(=O)N[C@@H](C)C(=O)NCC(=O)N[C@@H](CC(N)=O)C(=O)N[C@@H](CC(=O)O)C(=O)O [NS3 357-371] | 0.273 µM | 
CC[C@H](C)[C@H](NC(=O)[C@H](CC(=O)O)NC(=O)[C@@H](NC(=O)[C@@H](NC(=O)[C@@H](NC(=O)[C@@H](NC(=O)[C@@H](N)Cc1ccccc1)C(C)C)C(C)C)[C@@H](C)O)[C@@H](C)O)C(=O)N[C@@H](CO)C(=O)N[C@@H](CCC(=O)O)C(=O)N[C@@H](CCSC)C(=O)NCC(=O)N[C@@H](C)C(=O)N[C@@H](CC(N)=O)C(=O)N[C@@H](Cc1ccccc1)C(=O)N[C@@H](CCCCN)C(=O)O [NS3 405-419] |  | 1.59 µM
CC[C@H](C)[C@H](NC(=O)[C@@H](NC(=O)[C@H](CCCNC(=N)N)NC(=O)[C@H](CC(=O)O)NC(=O)[C@H](C)NC(=O)[C@H](CCCCN)NC(=O)[C@H](Cc1ccccc1)NC(=O)[C@@H](N)CC(N)=O)C(C)C)C(=O)N[C@@H](CC(=O)O)C(=O)N1CCC[C@H]1C(=O)N[C@@H](CCCNC(=N)N)C(=O)N[C@@H](CCCNC(=N)N)C(=O)N[C@@H](CS)C(=O)N[C@@H](CC(C)C)C(=O)N[C@@H](CCCCN)C(=O)O [NS3 417-431] |  | 0.632 µM
CC[C@H](C)[C@H](NC(=O)[C@H](Cc1ccc(O)cc1)NC(=O)[C@H](CCC(N)=O)NC(=O)[C@H](CC(=O)O)NC(=O)[C@H](CC(N)=O)NC(=O)[C@H](CCC(=O)O)NC(=O)[C@H](CCCCN)NC(=O)[C@H](CCC(N)=O)NC(=O)[C@@H]1CCCN1C(=O)[C@@H](N)CC(N)=O)C(=O)N[C@@H](Cc1ccccc1)C(=O)N[C@H](C(=O)NCC(=O)N[C@@H](CCC(N)=O)C(=O)N1CCC[C@H]1C(=O)O)[C@@H](C)O [NS3 465-479] |  | 10.6 µM
CC[C@H](C)[C@H](NC(=O)CNC(=O)[C@H](CO)NC(=O)[C@H](CCCCN)NC(=O)[C@@H](N)CCCCN)C(=O)N[C@H](C(=O)N[C@@H](CCC(=O)O)C(=O)N[C@H](C(=O)N[C@@H](CC(=O)O)C(=O)N[C@@H](CCCNC(=N)N)C(=O)N[C@H](C(=O)N[C@@H](CCC(=O)O)C(=O)N[C@@H](C)C(=O)N[C@@H](CCCCN)C(=O)N[C@@H](CCC(=O)O)C(=O)NCC(=O)N[C@@H](CC(C)C)C(=O)O)[C@@H](C)O)C(C)C)[C@@H](C)O [NS5 29-45] |  | 5.38 µM
CC[C@H](C)[C@H](NC(=O)[C@H](CS)NC(=O)[C@H](Cc1ccccc1)NC(=O)[C@H](CCC(N)=O)NC(=O)[C@H](CC(N)=O)NC(=O)[C@H](CC(N)=O)NC(=O)[C@H](CCCCN)NC(=O)[C@H](CC(C)C)NC(=O)[C@H](Cc1c[nH]c2ccccc12)NC(=O)[C@@H]1CCCN1C(=O)[C@H](CCC(=O)O)NC(=O)[C@@H](NC(=O)[C@H](CCSC)NC(=O)[C@H](CCCCN)NC(=O)[C@@H](N)CC(C)C)C(C)C)C(=O)N[C@@H](CCCCN)C(=O)N[C@H](C(=O)O)C(C)C [NS5 165-181] | 0.02 µM | 
CSCC[C@H](NC(=O)[C@H](C)NC(=O)[C@H](CCSC)NC(=O)[C@H](CCC(N)=O)NC(=O)[C@@H](NC(=O)[C@@H](NC(=O)[C@H](CCSC)NC(=O)[C@@H]1CCCN1C(=O)[C@@H](NC(=O)[C@@H](NC(=O)[C@H](CC(=O)O)NC(=O)[C@H](Cc1c[nH]c2ccccc12)NC(=O)[C@@H]1CCCN1)C(C)C)C(C)C)C(C)C)[C@@H](C)O)C(=O)N[C@H](C(=O)N[C@@H](CC(=O)O)C(=O)N[C@H](C(=O)N[C@H](C(=O)O)[C@@H](C)O)[C@@H](C)O)[C@@H](C)O [NS5 330-346] | 1.04 µM | 
CC[C@H](C)[C@H](NC(=O)[C@@H]1CCCN1C(=O)[C@H](CCCCN)NC(=O)[C@@H](NC(=O)[C@@H](NC(=O)[C@H](CS)NC(=O)[C@@H](N)CC(=O)O)C(C)C)C(C)C)C(=O)N[C@@H](CC(=O)O)C(=O)N[C@@H](CC(=O)O)C(=O)N[C@@H](CCCNC(=N)N)C(=O)N[C@@H](Cc1ccccc1)C(=O)N[C@@H](C)C(=O)N[C@@H](CC(N)=O)C(=O)N[C@@H](C)C(=O)N[C@@H](CC(C)C)C(=O)N[C@@H](CC(C)C)C(=O)N[C@@H](C)C(=O)O [NS5 664-680] |  | 4.09 µM
